{"source": "paper PMC10252594", "about": "(Cancers, 2023)", "system": "LAPC-4 xenografts", "assay": "Fatty acid determination (GC-FID) in LAPC-4 xenograft experiment", "format": "in vivo, mice", "conditions": "LAPC-4 tumor, 10 mg/kg PO", "protocol": "[…] The fatty acid profile was next determined by gas chromatography (GC), coupled with a flame ionization detector (FID), using phosphatidylcholine C21:0 (Avanti Polar Lipids) as an internal standard. The GC model 5890 was from Agilent Technologies (Mississauga, ON, Canada). The capillary column used was a HP-88 (100 m × 0.25 mm, […], Agilent Technologies), and the carrier gas was helium at 1.5 mL/min. A total of 56 fatty acids were identified according to their retention time, using fatty acid mixtures as standards.", "note": "Where “and” joins values, the source holds several entries; their conditions need not be identical. Equal entries are not always repeated."}
{"compound": "C#C[C@]1(O)CC[C@H]2[C@@H]3CCc4cc(OC)c(N5CCN(C(=O)[C@@H]6CCCN6C(=O)c6ccc7ccccc7n6)CC5)cc4[C@H]3CC[C@@]21C", "note": "[RM-581]", "values": [{"measurement": "Caproic acid 10:0, FA RM-581 % of total", "setting": "28 days, Table S1", "value": 0.02, "unit": "%"}, {"measurement": "Caprylic acid 8:0, FA RM-581", "setting": "28 days, Table S1", "value": 0, "unit": "mg/g"}, {"measurement": "Caprylic acid 8:0, FA RM-581 % of total", "setting": "28 days, Table S1", "value": 0, "unit": "%"}, {"measurement": "Dimethoxyoctadecanoic acid 18:0, FA RM-581", "setting": "28 days, Table S1", "value": 0.09, "unit": "mg/g"}, {"measurement": "Dimethoxyoctadecanoic acid 18:0, FA RM-581 % of total", "setting": "28 days, Table S1", "value": 0.38, "unit": "%"}, {"measurement": "Dimethoxyoctadecenoic acid (9c) w9 18:1, FA RM-581", "setting": "28 days, Table S1", "value": 0.07, "unit": "mg/g"}, {"measurement": "Dimethoxyoctadecenoic acid (9c) w9 18:1, FA RM-581 % of total", "setting": "28 days, Table S1", "value": 0.29, "unit": "%"}, {"measurement": "Elaidic acid (9t) w9 18:1, FA RM-581", "setting": "28 days, Table S1", "value": 0, "unit": "mg/g"}, {"measurement": "Elaidic acid (9t) w9 18:1, FA RM-581 % of total", "setting": "28 days, Table S1", "value": 0, "unit": "%"}, {"measurement": "Erucic acid w9 22:1, FA RM-581", "setting": "28 days, Table S1", "value": 0.025, "unit": "mg/g"}, {"measurement": "Erucic acid w9 22:1, FA RM-581 % of total", "setting": "28 days, Table S1", "value": 0.10, "unit": "%"}, {"measurement": "FA (1c) w14 15:1, FA RM-581", "setting": "28 days, Table S1", "value": 0, "unit": "mg/g"}, {"measurement": "FA (1c) w14 15:1, FA RM-581 % of total", "setting": "28 days, Table S1", "value": 0, "unit": "%"}, {"measurement": "FA (5c) w10 15:1, FA RM-581", "setting": "28 days, Table S1", "value": 0, "unit": "mg/g"}, {"measurement": "FA (5c) w10 15:1, FA RM-581 % of total", "setting": "28 days, Table S1", "value": 0, "unit": "%"}, {"measurement": "FA (5t) w10 15:1, FA RM-581", "setting": "28 days, Table S1", "value": 0, "unit": "mg/g"}, {"measurement": "FA (5t) w10 15:1, FA RM-581 % of total", "setting": "28 days, Table S1", "value": 0, "unit": "%"}, {"measurement": "FA (7c) w10 17:1, FA RM-581", "setting": "28 days, Table S1", "value": 0.05, "unit": "mg/g"}, {"measurement": "FA (7c) w10 17:1, FA RM-581 % of total", "setting": "28 days, Table S1", "value": 0.20, "unit": "%"}, {"measurement": "FA (7t) w10 17:1, FA RM-581", "setting": "28 days, Table S1", "value": 0.02, "unit": "mg/g"}, {"measurement": "FA (7t) w10 17:1, FA RM-581 % of total", "setting": "28 days, Table S1", "value": 0.09, "unit": "%"}, {"measurement": "FA (8c11c14c17c) w3 20:4, FA RM-581", "setting": "28 days, Table S1", "value": 0.04, "unit": "mg/g"}, {"measurement": "FA (8c11c14c17c) w3 20:4, FA RM-581 % of total", "setting": "28 days, Table S1", "value": 0.16, "unit": "%"}, {"measurement": "FA (8c) w12 20:1, FA RM-581", "setting": "28 days, Table S1", "value": 0, "unit": "mg/g"}, {"measurement": "FA (8c) w12 20:1, FA RM-581 % of total", "setting": "28 days, Table S1", "value": 0, "unit": "%"}, {"measurement": "FA (9c12t) w6 18:2, FA RM-581", "setting": "28 days, Table S1", "value": 0.02, "unit": "mg/g"}, {"measurement": "FA (9c12t) w6 18:2, FA RM-581 % of total", "setting": "28 days, Table S1", "value": 0.09, "unit": "%"}, {"measurement": "FA (9t12c) w6 18:2, FA RM-581", "setting": "28 days, Table S1", "value": 0, "unit": "mg/g"}, {"measurement": "FA (9t12c) w6 18:2, FA RM-581 % of total", "setting": "28 days, Table S1", "value": 0, "unit": "%"}, {"measurement": "FA (9t12t15t) w3 18:3, FA RM-581", "setting": "28 days, Table S1", "value": 0.01, "unit": "mg/g"}, {"measurement": "FA (9t12t15t) w3 18:3, FA RM-581 % of total", "setting": "28 days, Table S1", "value": 0.03, "unit": "%"}, {"measurement": "FA (9t) w5 14:1, FA RM-581", "setting": "28 days, Table S1", "value": 0.01, "unit": "mg/g"}, {"measurement": "FA (9t) w5 14:1, FA RM-581 % of total", "setting": "28 days, Table S1", "value": 0.03, "unit": "%"}, {"measurement": "FA (9t) w13 22:1, FA RM-581", "setting": "28 days, Table S1", "value": 0, "unit": "mg/g"}, {"measurement": "FA (9t) w13 22:1, FA RM-581 % of total", "setting": "28 days, Table S1", "value": 0, "unit": "%"}, {"measurement": "FA (11c14c17c) w3 20:3, FA RM-581", "setting": "28 days, Table S1", "value": 0, "unit": "mg/g"}, {"measurement": "FA (11c14c17c) w3 20:3, FA RM-581 % of total", "setting": "28 days, Table S1", "value": 0, "unit": "%"}, {"measurement": "FA (11c14c) w6 20:2, FA RM-581", "setting": "28 days, Table S1", "value": 0.08, "unit": "mg/g"}, {"measurement": "FA (11c14c) w6 20:2, FA RM-581 % of total", "setting": "28 days, Table S1", "value": 0.34, "unit": "%"}, {"measurement": "FA (12c) w6 18:1, FA RM-581", "setting": "28 days, Table S1", "value": 0, "unit": "mg/g"}, {"measurement": "FA (12c) w6 18:1, FA RM-581 % of total", "setting": "28 days, Table S1", "value": 0, "unit": "%"}, {"measurement": "FA (13c16c19c) w3 22:3, FA RM-581", "setting": "28 days, Table S1", "value": 0, "unit": "mg/g"}, {"measurement": "FA (13c16c19c) w3 22:3, FA RM-581 % of total", "setting": "28 days, Table S1", "value": 0, "unit": "%"}, {"measurement": "FA (13c16c) w6 22:2, FA RM-581", "setting": "28 days, Table S1", "value": 0.01, "unit": "mg/g"}, {"measurement": "FA (13c16c) w6 22:2, FA RM-581 % of total", "setting": "28 days, Table S1", "value": 0.04, "unit": "%"}, {"measurement": "FA (13c) w5 18:1, FA RM-581", "setting": "28 days, Table S1", "value": 0.02, "unit": "mg/g"}, {"measurement": "FA (13c) w5 18:1, FA RM-581 % of total", "setting": "28 days, Table S1", "value": 0.07, "unit": "%"}, {"measurement": "Gamma-linolenic acid (6c9c12c) w6 18:3, FA RM-581", "setting": "28 days, Table S1", "value": 0.05, "unit": "mg/g"}, {"measurement": "Gamma-linolenic acid (6c9c12c) w6 18:3, FA RM-581 % of total", "setting": "28 days, Table S1", "value": 0.19, "unit": "%"}, {"measurement": "Gondoic acid (11c) w9 20:1, FA RM-581", "setting": "28 days, Table S1", "value": 0.08, "unit": "mg/g"}, {"measurement": "Gondoic acid (11c) w9 20:1, FA RM-581 % of total", "setting": "28 days, Table S1", "value": 0.32, "unit": "%"}, {"measurement": "Isobranched 17:0, FA RM-581", "setting": "28 days, Table S1", "value": 0.02, "unit": "mg/g"}, {"measurement": "Isobranched 17:0, FA RM-581 % of total", "setting": "28 days, Table S1", "value": 0.08, "unit": "%"}, {"measurement": "Lauric acid 12:0, FA RM-581", "setting": "28 days, Table S1", "value": 0.02, "unit": "mg/g"}, {"measurement": "Lauric acid 12:0, FA RM-581 % of total", "setting": "28 days, Table S1", "value": 0.10, "unit": "%"}, {"measurement": "Linolelaidic acid (9t12t) w6 18:2, FA RM-581", "setting": "28 days, Table S1", "value": 0.03, "unit": "mg/g"}, {"measurement": "Linolelaidic acid (9t12t) w6 18:2, FA RM-581 % of total", "setting": "28 days, Table S1", "value": 0.14, "unit": "%"}, {"measurement": "Myristoleic acid (9c) w5 14:1, FA RM-581", "setting": "28 days, Table S1", "value": 0.02, "unit": "mg/g"}, {"measurement": "Myristoleic acid (9c) w5 14:1, FA RM-581 % of total", "setting": "28 days, Table S1", "value": 0.06, "unit": "%"}, {"measurement": "Palmitelaidic acid (9t) w1 16:1, FA RM-581", "setting": "28 days, Table S1", "value": 0, "unit": "mg/g"}, {"measurement": "Palmitelaidic acid (9t) w1 16:1, FA RM-581 % of total", "setting": "28 days, Table S1", "value": 0, "unit": "%"}, {"measurement": "Pentadecanoic acid 15:0, FA RM-581", "setting": "28 days, Table S1", "value": 0.04, "unit": "mg/g"}, {"measurement": "Pentadecanoic acid 15:0, FA RM-581 % of total", "setting": "28 days, Table S1", "value": 0.17, "unit": "%"}, {"measurement": "Petroselaidic acid (6t) w12 18:1, FA RM-581", "setting": "28 days, Table S1", "value": 0, "unit": "mg/g"}, {"measurement": "Petroselaidic acid (6t) w12 18:1, FA RM-581 % of total", "setting": "28 days, Table S1", "value": 0, "unit": "%"}, {"measurement": "Petroselinic acid (7c-n11/6c-n12) w11/12 18:1, FA RM-581", "setting": "28 days, Table S1", "value": 0, "unit": "mg/g"}, {"measurement": "Petroselinic acid (7c-n11/6c-n12) w11/12 18:1, FA RM-581 % of total", "setting": "28 days, Table S1", "value": 0, "unit": "%"}, {"measurement": "Stearidonic acid (6c9c12c15c) w3 18:4, FA RM-581", "setting": "28 days, Table S1", "value": 0, "unit": "mg/g"}, {"measurement": "Stearidonic acid (6c9c12c15c) w3 18:4, FA RM-581 % of total", "setting": "28 days, Table S1", "value": 0, "unit": "%"}, {"measurement": "Timnodonic acid (5c8c11c14c17c) w3 20:5, FA RM-581", "setting": "28 days, Table S1", "value": 0.025, "unit": "mg/g"}, {"measurement": "Timnodonic acid (5c8c11c14c17c) w3 20:5, FA RM-581 % of total", "setting": "28 days, Table S1", "value": 0.10, "unit": "%"}, {"measurement": "Trans-vaccenic acid (11t) w7 18:1, FA RM-581", "setting": "28 days, Table S1", "value": 0.03, "unit": "mg/g"}, {"measurement": "Trans-vaccenic acid (11t) w7 18:1, FA RM-581 % of total", "setting": "28 days, Table S1", "value": 0.13, "unit": "%"}, {"measurement": "increase in linoleic acid level inside the tumors", "setting": "10 mg/kg", "value": "1.59 mg/g and ~ 5.7 mM"}, {"measurement": "increase in oleic acid level inside the tumors", "setting": "10 mg/kg", "value": "1.26 mg/g and ~ 4.5 mM"}]}
